Results reported in paper PMC8766756, “Insights on Cancer Cell Inhibition, Subcellular Activities, and Kinase Profile of Phenylacetamides Pending 1H-Imidazol-5-One Variants” (Frontiers in Pharmacology, 2022).

Key:
Assay in all cases: PamChip tyrosine kinase microarray
Type in all cases: biochemical
Conditions in all cases: 0.1 µM, HL60 lysate
[1] = target: T1, InSR (P06213) (Homo sapiens, UniProt P06213)
T1 construct: purchased PamGene (PamChip PTK array, Upstream Kinase Analysis)
Method: (§1) The reproducible high potency of KIM-161 on leukemia cell lines was initially speculated to encompass Src tyrosine kinase inhibition. Even so, we also suspected that KIM-161 might be affecting other tyrosine kinases because the HL60 cells are not among the most Src-dependent highly proliferative cells ([Collins, 1987]). Therefore, a profiling of the kinase activities was performed after treatment with KIM-161 using PamChip® tyrosine kinase microarray. This analysis is based on incubation of cell lysate with 3D microarray that projects peptides specific for 143 tyrosine kinases. If a kinase is modified in the cells, it will be detected by phosphorylating its specific peptide in the microarray.
(§2) This test measured the activities of an array of tyrosine kinases of treated HL60 cells compared to the control (untreated cells) after incubation with KIM-161 for 48 h at concentrations of 0.001, 0.01, 0.1, 1.0, 10, and 50 µM. The log fold change (LFC) heat map was initially used to identify significant peptides affected at each concentration (Figure 5).
(§3) An Upstream Kinase Tool was used to generate a putative list of kinases responsible for phosphorylating the phosphosites on the PamChip®. It is an interpretation and is highly dependent on the contents of the underlying phosphorylation databases. Kinase score (Table 2) was used for ranking kinases based on their significance and specificity in terms of the set of peptides used for the corresponding kinase. Kinase statistics indicates the overall change of the peptide set that represents a certain kinase. Kinase statistics value of <0 indicates lower kinase activity in the lysate spiked with the compound and vice versa. Table 2 lists the 20 most changed kinases within treated HL60 cell lysates by 0.1 μM KIM-161.
(§4) Every compound had spiked into a leukemic (AML) cell line HL60 lysate at different concentrations (0.001, 0.01, 0.1, 1, 10, and 50 μM). In addition, DMSO had also spiked at a low concentration (2% v/v) to the HL60 lysate as the control. The samples were profiled on PamGene's tyrosine kinase (PTK) arrays in technical replicates, covering a total of 196 phosphorylation sites. The frozen leukemic HL60 cultured cell pellet was sent to PamGene. At PamGene, the cells were lysed in the presence of the lysis buffer and proteases inhibitor cocktail. The protein concentration was measured using the standard Bradford assay as per the PamGene SOPs. These lysates were further used for generating the PTK activity profiles. For spiking, KIM-161 was received in powder form and dissolved in DMSO at the PamGene facility, followed by storing it at −20°C in small aliquots. PamGene used its in-house bioinformatics toolbox in combination with other methods to generate the hypotheses of signaling pathways.

[2] = target: T2, JAK3 (P52333) (Homo sapiens, UniProt P52333)
T2 construct: purchased PamGene (PamChip PTK array, Upstream Kinase Analysis)
T2 sequence (P52333 1-1124): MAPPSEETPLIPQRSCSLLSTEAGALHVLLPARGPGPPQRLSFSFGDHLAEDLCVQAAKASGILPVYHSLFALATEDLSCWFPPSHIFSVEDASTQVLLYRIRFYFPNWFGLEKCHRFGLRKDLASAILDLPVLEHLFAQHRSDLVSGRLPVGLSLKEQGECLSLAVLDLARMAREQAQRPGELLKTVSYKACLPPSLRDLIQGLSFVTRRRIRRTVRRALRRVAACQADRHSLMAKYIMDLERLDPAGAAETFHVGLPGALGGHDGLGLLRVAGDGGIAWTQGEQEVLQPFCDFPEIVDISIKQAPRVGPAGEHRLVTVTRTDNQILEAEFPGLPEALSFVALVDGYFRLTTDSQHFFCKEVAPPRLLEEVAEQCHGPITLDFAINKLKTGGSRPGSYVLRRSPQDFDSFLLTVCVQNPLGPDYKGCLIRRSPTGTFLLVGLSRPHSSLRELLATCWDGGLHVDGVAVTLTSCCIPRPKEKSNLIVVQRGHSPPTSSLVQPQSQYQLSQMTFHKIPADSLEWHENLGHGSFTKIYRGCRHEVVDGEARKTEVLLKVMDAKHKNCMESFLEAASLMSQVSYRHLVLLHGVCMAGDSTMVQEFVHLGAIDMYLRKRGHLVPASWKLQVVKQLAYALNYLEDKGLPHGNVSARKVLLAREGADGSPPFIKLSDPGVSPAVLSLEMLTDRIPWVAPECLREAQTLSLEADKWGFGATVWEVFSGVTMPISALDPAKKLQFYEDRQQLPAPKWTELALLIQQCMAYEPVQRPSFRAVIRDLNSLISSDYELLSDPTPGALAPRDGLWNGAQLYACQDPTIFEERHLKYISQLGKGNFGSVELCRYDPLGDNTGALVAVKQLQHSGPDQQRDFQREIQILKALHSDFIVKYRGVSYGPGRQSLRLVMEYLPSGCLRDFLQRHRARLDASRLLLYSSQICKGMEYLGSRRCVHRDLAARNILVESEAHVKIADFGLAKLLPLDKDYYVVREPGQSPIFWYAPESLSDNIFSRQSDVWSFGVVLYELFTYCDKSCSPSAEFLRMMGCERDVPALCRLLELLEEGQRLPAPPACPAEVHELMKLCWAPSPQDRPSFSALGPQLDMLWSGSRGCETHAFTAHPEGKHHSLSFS
Method: as §1, §2, §3, §4

[3] = target: T3, Lyn (P07948) (Homo sapiens, UniProt P07948)
T3 construct: purchased PamGene (PamChip PTK array, Upstream Kinase Analysis)
Method: as §1, §2, §3, §4

T3 sequence (P07948 whole entry): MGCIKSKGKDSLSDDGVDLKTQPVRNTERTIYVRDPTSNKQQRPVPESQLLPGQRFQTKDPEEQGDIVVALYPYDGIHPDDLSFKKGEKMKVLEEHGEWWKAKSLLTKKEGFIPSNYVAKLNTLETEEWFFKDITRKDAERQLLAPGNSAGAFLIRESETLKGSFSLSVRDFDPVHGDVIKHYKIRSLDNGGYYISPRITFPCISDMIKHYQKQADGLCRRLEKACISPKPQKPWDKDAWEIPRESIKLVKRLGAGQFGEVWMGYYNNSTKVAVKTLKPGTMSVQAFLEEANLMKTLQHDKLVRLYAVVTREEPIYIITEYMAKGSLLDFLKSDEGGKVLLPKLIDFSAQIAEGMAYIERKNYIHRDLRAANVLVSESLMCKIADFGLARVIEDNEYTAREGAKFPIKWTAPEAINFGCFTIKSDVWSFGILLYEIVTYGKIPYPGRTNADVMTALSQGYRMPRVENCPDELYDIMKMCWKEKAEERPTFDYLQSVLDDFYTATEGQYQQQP
T1 sequence (P06213 28-1382): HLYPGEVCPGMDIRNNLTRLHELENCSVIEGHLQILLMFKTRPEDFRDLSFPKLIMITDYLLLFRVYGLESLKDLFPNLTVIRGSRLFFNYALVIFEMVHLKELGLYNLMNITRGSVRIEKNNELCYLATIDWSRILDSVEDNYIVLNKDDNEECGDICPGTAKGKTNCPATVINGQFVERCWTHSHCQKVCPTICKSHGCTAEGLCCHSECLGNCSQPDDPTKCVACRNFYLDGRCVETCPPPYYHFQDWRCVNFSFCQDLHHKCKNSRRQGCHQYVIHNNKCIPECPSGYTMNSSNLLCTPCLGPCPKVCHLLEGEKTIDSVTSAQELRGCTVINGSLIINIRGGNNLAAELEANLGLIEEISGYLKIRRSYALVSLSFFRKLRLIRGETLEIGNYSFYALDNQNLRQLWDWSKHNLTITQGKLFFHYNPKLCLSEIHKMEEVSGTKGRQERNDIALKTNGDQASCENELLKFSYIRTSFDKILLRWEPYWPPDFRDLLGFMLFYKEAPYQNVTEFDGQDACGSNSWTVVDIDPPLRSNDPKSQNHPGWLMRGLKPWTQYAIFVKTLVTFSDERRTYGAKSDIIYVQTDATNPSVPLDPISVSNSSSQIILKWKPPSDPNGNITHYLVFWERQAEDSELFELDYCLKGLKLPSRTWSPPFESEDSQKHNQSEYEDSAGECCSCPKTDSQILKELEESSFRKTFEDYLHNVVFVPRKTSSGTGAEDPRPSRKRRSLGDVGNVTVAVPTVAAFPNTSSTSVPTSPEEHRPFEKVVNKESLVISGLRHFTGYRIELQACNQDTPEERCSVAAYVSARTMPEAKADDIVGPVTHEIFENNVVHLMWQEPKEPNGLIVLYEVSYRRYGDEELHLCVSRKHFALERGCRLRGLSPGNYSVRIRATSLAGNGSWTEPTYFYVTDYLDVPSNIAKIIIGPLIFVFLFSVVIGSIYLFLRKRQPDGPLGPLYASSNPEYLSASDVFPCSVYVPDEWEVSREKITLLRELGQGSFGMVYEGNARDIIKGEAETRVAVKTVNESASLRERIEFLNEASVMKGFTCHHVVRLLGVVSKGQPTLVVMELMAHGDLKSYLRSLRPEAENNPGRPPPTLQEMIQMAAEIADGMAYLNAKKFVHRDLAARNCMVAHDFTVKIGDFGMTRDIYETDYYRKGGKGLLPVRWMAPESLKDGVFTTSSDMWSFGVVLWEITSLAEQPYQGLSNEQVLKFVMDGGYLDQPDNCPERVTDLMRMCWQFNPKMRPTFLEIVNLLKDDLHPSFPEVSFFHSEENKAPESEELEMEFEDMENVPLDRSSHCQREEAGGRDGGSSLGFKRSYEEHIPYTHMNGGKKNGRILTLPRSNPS

COc1ccc(/C=C2\N=C(C)N(c3ccc(CC(=O)NCc4ccccc4)cc3)C2=O)cc1 [Compound 4c, (Z)-N-Benzyl-2-(4-(4-(4-methoxybenzylidene)-2-methyl-5-oxo-4,5-dihydro-1H-imidazol-1-yl)phenyl)acetamide]
Mean Final score (Kinase score) [1]: 2.117 | Mean Kinase Statistic [1]: -0.9506 | Mean Significance Score [1]: 2.048 | Mean Specificity Score [1]: 0.02144 | Mean Final score (Kinase score) [2]: 1.746 | Mean Kinase Statistic [2]: -1.15 | Mean Significance Score [2]: 1.478 | Mean Specificity Score [2]: 0.2986 | Mean Final score (Kinase score) [3]: 2.229 | Mean Kinase Statistic [3]: -1.195 | Mean Significance Score [3]: 1.851 | Mean Specificity Score [3]: 0.3437
